Experiment [1] has as its target T1, Mitogen-activated protein kinase 14 (Homo sapiens, UniProt Q16539). In words: Inhibition of p38alpha in human PBMC assessed as inhibition of LPS-induced TNFalpha production after 16 to 18 hrs by ELISA. In general terms: ELISA stands for enzyme-linked immunosorbent assay.
The target of experiment [2] is T1, Mitogen-activated protein kinase 14. Put plainly: Inhibition of p38alpha kinase using KRELVEPLTPSGEAPNQALLR as substrate for 20 mins by lactate dehydrogenase-coupled spectrophotometric assay.
The target is the same in experiment [3]. Put plainly: Inhibition of p38alpha in human PBMC assessed as inhibition of LPS-induced IL1beta production after 16 to 18 hrs by ELISA.

The IC50 is the point on the concentration scale where inhibition reaches its midpoint.

T1 sequence (Q16539 whole entry): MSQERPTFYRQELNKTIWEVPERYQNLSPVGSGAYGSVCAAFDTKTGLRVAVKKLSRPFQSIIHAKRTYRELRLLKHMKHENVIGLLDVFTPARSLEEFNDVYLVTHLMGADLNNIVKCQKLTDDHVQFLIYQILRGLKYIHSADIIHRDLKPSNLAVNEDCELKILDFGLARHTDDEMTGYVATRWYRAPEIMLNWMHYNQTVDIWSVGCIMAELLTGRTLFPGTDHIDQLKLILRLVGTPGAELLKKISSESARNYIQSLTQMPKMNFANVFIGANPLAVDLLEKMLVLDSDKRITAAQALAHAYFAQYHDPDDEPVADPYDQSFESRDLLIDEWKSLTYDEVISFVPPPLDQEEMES

For `COc1ccccc1-c1c(=O)ncn2nc(Sc3ccccc3)ccc12`, the IC50 in experiment [1] was greater than 20 µM.

On to `COc1ccc(-c2c(=O)ncn3nc(Sc4ccccc4)ccc23)cc1`, for which the IC50 in experiment [2] and in experiment [1] was greater than 20 µM throughout.

As for `O=c1ncn2nc(Sc3ccccc3)ccc2c1-c1ccc(Cl)c(Cl)c1`, the IC50 in experiment [2], in experiment [3] and in experiment [1] was greater than 20 µM throughout.

Values taken from BindingDB's records for doi:10.1021/ml2001455 (2011).
